Where a name gives a salt, the structure may show the parent alone.
Molecular target: T1, recombinant IRAK-4 kinase (Homo sapiens, UniProt Q9NWZ3)
T1 construct: purchased Millipore, USA
T1 sequence (Q9NWZ3 1-460): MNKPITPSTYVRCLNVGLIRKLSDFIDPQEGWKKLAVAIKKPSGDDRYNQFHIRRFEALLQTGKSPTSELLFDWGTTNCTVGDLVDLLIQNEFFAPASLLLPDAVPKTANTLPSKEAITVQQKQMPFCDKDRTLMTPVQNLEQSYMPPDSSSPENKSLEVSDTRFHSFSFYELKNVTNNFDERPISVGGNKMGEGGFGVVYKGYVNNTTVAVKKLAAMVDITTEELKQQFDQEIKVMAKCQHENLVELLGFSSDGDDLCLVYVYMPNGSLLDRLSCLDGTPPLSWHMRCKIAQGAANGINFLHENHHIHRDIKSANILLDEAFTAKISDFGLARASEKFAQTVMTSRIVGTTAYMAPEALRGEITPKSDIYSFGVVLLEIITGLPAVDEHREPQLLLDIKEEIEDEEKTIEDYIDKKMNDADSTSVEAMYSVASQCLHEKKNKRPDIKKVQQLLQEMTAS
Test: IRAK-4 Biochemical Assay (TR-FRET)
Details: 5 ng IRAK-4 kinase, 100 nM Biotin Histone H3, 20 μM ATP, 30 minutes pre-incubation, read-out: IC50 values for IRAK4 activity
Method: Compounds were tested for their potential to inhibit IRAK-4 enzyme in a TR-FRET assay using recombinant IRAK-4 kinase from Millipore, USA. The assay buffer was 50 mM Tris-HCl pH 7.5, 20 mM MgCl2, 1 mM EGTA, 2 mM DTT, 3 mM MnCl2 and 0.01% Tween20. 5 ng of IRAK-4 kinase was used for the assay. After pre-incubation of enzyme with test compound for 30 minutes at room temperature, a substrate mix containing 100 nM Biotin Histone H3 (Millipore, USA) and 20 μM ATP (Sigma, USA) was added and the reaction was incubated for 30 minutes. Post incubation, the reaction was stopped by the addition of stop mix containing 40 mM EDTA, 1 nM of Europium-Anti-Phospho-Histone H3 (Ser10) antibody (Perkin Elmer, USA) and 20 nM Sure Light Allophycocyanin-Streptavidin (Perkin Elmer, USA).

Row | SMILES | IC50 [nM]
1 | COc1ccc(-c2nc(C(=O)Nc3cc4oc(N5CCOCC5)nc4nc3N3CCC(O)C3)co2)cn1 (stereo not drawn) [Example 106, N-(5-(3-hydroxypyrrolidin-1-yl)-2-morpholinooxazolo[4,5-b]pyridin-6-yl)-2-(6-methoxypyridin-3-yl)oxazole-4-carboxamide] | > 100
2 | Cc1cc(-c2ccc(C(=O)Nc3cc4sc(N5CCOCC5)nc4nc3N3CCC(O)CC3)o2)ccn1 [Example 101, N-(5-(4-hydroxypiperidin-1-yl)-2-morpholinothiazolo[4,5-b]pyridin-6-yl)-5-(2-methylpyridin-4-yl)furan-2-carboxamide] | < 50
3 | Cc1cc(-c2nc(C(=O)Nc3cc4sc(N5CCOCC5)nc4nc3N3CCCCCC3)co2)ccn1 [Example 91, N-(5-(azepan-1-yl)-2-morpholinothiazolo[4,5-b]pyridin-6-yl)-2-(2-methylpyridin-4-yl)oxazole-4-carboxamide] | < 50
4 | COc1ccc(-c2nc(C(=O)Nc3cc4sc(N5CCOCC5)nc4nc3N3CCCCC3)co2)cn1 [Example 57, 2-(6-methoxypyridin-3-yl)-N-(2-morpholino-5-(piperidin-1-yl)thiazolo[4,5-b]pyridin-6-yl)oxazole-4-carboxamide] | < 50
5 | Nc1cc(-c2nc(C(=O)Nc3cc4sc(N5CCOCC5)nc4nc3N3CCCCC3)co2)ccn1 [Example 92, 2-(2-aminopyridin-4-yl)-N-(2-morpholino-5-(piperidin-1-yl)thiazolo[4,5-b]pyridin-6-yl)oxazole-4-carboxamide hydrochloride] | < 50
6 | Cc1cc(-c2ccc(C(=O)Nc3cc4oc(N5CCOCC5)nc4nc3N3CC[C@H](O)C3)o2)ccn1 [Example 107, (S)—N-(5-(3-hydroxypyrrolidin-1-yl)-2-morpholinooxazolo[4,5-b]pyridin-6-yl)-5-(2-methylpyridin-4-yl)furan-2-carboxamide] | > 100
7 | Cc1cc(-c2ccc(C(=O)Nc3cc4oc(N5CCOCC5)nc4nc3N3CCCCC3)o2)ccn1 [Example 113, 5-(2-methylpyridin-4-yl)-N-(2-morpholino-5-(piperidin-1-yl)oxazolo[4,5-b]pyridin-6-yl)furan-2-carboxamide] | < 50
8 | Cc1ncccc1-c1nc(C(=O)Nc2cc3sc(N4CCCCC4)nc3nc2N2CCCCC2)co1 [Example 52, N-(2,5-di(piperidin-1-yl)thiazolo[4,5-b]pyridin-6-yl)-2-(2-methylpyridin-3-yl)oxazole-4-carboxamide hydrochloride] | < 50
9 | Cc1cc(-c2nc(C(=O)Nc3cc4sc(N5CCOCC5)nc4nc3N3C4CCC3CC(O)C4)co2)ccn1 (stereo not drawn) [Example 123, N-(5-(3-hydroxy-8-azabicyclo[3.2.1]octan-8-yl)-2-morpholinothiazolo[4,5-b]pyridin-6-yl)-2-(2-methylpyridin-4-yl)oxazole-4-carboxamide] | < 50
10 | Cc1ccc(-c2nc(C(=O)Nc3cc4oc(N5CCOCC5)nc4nc3N3CCCCC3)co2)cn1 [Example 35, 2-(6-methylpyridin-3-yl)-N-(2-morpholino-5-(piperidin-1-yl)oxazolo[4,5-b]pyridin-6-yl)oxazole-4-carboxamide] | < 50
11 | O=C(Nc1cc2sc(N3CCCCC3)nc2nc1N1CCCCC1)c1cccc(N2CC[C@H](O)C2)n1 [Example 65, (S)—N-(2,5-di(piperidin-1-yl)thiazolo[4,5-b]pyridin-6-yl)-6-(3-hydroxypyrrolidin-1-yl)picolinamide] | < 50
12 | COc1ccc(-c2nc(C(=O)Nc3cc4oc(N5CCOCC5)nc4nc3N3CC[C@@H](O)C3)co2)cn1 [Example 105, (R)—N-(5-(3-hydroxypyrrolidin-1-yl)-2-morpholinooxazolo[4,5-b]pyridin-6-yl)-2-(6-methoxypyridin-3-yl)oxazole-4-carboxamide] | > 100
13 | Cc1cc(-c2ccc(C(=O)Nc3cc4sc(N5CCOCC5)nc4nc3N3CC[C@H](O)C3)o2)ccn1 [Example 82, (S)—N-(5-(3-hydroxypyrrolidin-1-yl)-2-morpholinothiazolo[4,5-b]pyridin-6-yl)-5-(2-methylpyridin-4-yl)furan-2-carboxamide] | < 50
14 | C[C@H](O)Cn1cc(-c2cccc(C(=O)Nc3cc4sc(N5CCOCC5)nc4nc3C3CC3)n2)cn1 [Example 74, (S)—N-(5-cyclopropyl-2-morpholinothiazolo[4,5-b]pyridin-6-yl)-6-(1-(2-hydroxypropyl)-1H-pyrazol-4-yl)picolinamide] | < 50
15 | O=C(Nc1cc2oc(N3CCCCC3)nc2nc1N1CCCCC1)c1coc(-c2cccnc2O)n1 [Example 28, N-(2,5-di(piperidin-1-yl)oxazolo[4,5-b]pyridin-6-yl)-2-(2-hydroxypyridin-3-yl)oxazole-4-carboxamide] | > 100
16 | N[C@H]1CCN(c2nc(C(=O)Nc3cc4sc(N5CCOCC5)nc4nc3C3CC3)co2)C1 [Example 68, (S)-2-(3-aminopyrrolidin-1-yl)-N-(5-cyclopropyl-2-morpholinothiazolo[4,5-b]pyridin-6-yl)oxazole-4-carboxamide] | 50 to 100
17 | N[C@H]1CCN(c2nc(C(=O)Nc3cc4sc(N5CCOCC5)nc4nc3N3CCCCC3)co2)C1 [Example 66, (S)-2-(3-aminopyrrolidin-1-yl)-N-(2-morpholino-5-(piperidin-1-yl)thiazolo[4,5-b]pyridin-6-yl)oxazole-4-carboxamide] | < 50
18 | CC(=O)Nc1cc(-c2nc(C(=O)Nc3cc4sc(N5CCOCC5)nc4nc3N3CCC(O)CC3)co2)ccn1 [Example 125, 2-(2-acetamidopyridin-4-yl)-N-(5-(4-hydroxypiperidin-1-yl)-2-morpholinothiazolo[4,5-b]pyridin-6-yl)oxazole-4-carboxamide] | < 50
19 | Cc1cc(-c2nc(C(=O)Nc3cc4oc(N5CCOCC5)nc4nc3N3CCN(C)CC3)co2)ccn1 [Example 25, N-(5-(4-methylpiperazin-1-yl)-2-morpholinooxazolo[4,5-b]pyridin-6-yl)-2-(2-methylpyridin-4-yl)oxazole-4-carboxamide] | < 50
20 | Cn1cc(-c2cccc(C(=O)Nc3cc4sc(N5CCOCC5)nc4nc3N3CCCCC3)n2)cn1 [Example 51, 6-(1-methyl-1H-pyrazol-4-yl)-N-(2-morpholino-5-(piperidin-1-yl)thiazolo[4,5-b]pyridin-6-yl)picolinamide] | < 50
21 | CC(=O)Nc1cc(-c2nc(C(=O)Nc3cc4sc(N5CCOCC5)nc4nc3N3CCCC(O)C3)co2)ccn1 (stereo not drawn) [Example 127, 2-(2-acetamidopyridin-4-yl)-N-(5-(3-hydroxypiperidin-1-yl)-2-morpholinothiazolo[4,5-b]pyridin-6-yl)oxazole-4-carboxamide] | < 50
22 | Cc1cc(-c2nc(C(=O)Nc3cc4oc(N5CCOCC5)nc4nc3N3CCC3)co2)ccn1 [Example 110, N-(5-(azetidin-1-yl)-2-morpholinooxazolo[4,5-b]pyridin-6-yl)-2-(2-methylpyridin-4-yl)oxazole-4-carboxamide] | < 50
23 | O=C(Nc1cc2oc(N3CCOCC3)nc2nc1N1CCCCC1)c1coc(-c2cccnc2O)n1 [Example 29, 2-(2-hydroxypyridin-3-yl)-N-(2-morpholino-5-(piperidin-1-yl)oxazolo[4,5-b]pyridin-6-yl)oxazole-4-carboxamide] | < 50
24 | O=C(Nc1cc2oc(N3CCCCC3)nc2nc1N1CCCCC1)c1coc(-c2ccnc(Cl)c2)n1 [Example 10, 2-(2-chloropyridin-4-yl)-N-(2,5-di(piperidin-1-yl)oxazolo[4,5-b]pyridin-6-yl)oxazole-4-carboxamide] | < 50
